Reference: US7799758B2, “Peptides and peptide derivatives as well as pharmaceutical compositions containing the same” (priority 2006, dated 2010)
No end group written: not given here.

Tested on: mouse-adapted Dengue virus (DEN-2, strain P23085)
Experiment: model of Dengue virus infection in mice
Assay type: in vivo
Details: BALB/c mice infected s.c. with DEN-2 at 1-2 LD50, 4.8 mg/kg/day i.m. once a day for 5 days from day 3, read at day 10, p < 0.05
Description: A further possibility for establishing the biological effect in vivo is the reduction or complete suppression of mortality because of an infection with haemolytic viruses or bacteria. For this purpose, mice are, as described in Example 8, for instance infected with a dose of Dengue viruses, wherein 50% of the animals die within a period of 5-20 days after infection. The inventive compounds bring about a reduction of this mortality at a dose ranging from 0.001 to 500 mg/kg body weight, preferably at a dose ranging from […] body weight.
The biological effect of the compound of Example 3 was established in a model of Dengue virus infection in mice. 5-week-old male BALB/c mice were divided into 2 groups. All animals were infected subcutaneously with a mouse-adapted Dengue virus (DEN-2, strain P23085 at a dose of 1-2 LD50. 15 mice received 0.1 ml of 0.8% saline as intramuscular injection (control). The treated animals received 4.8 mg/kg/day of the agent of Example 3 as an intramuscular injection (diluted in 0.1 ml of 0.8% saline) once a day for 5 days, starting on day 3 after the virus infection.
At the end of the treatment period (day 10) the survival rates were compared.

Question: Which “Mortality Percentage” value does the source give for “Gly-His-Arg-Pro-Leu-Asp-Lys-Lys-Arg-Glu-Glu-Ala-Pro-Ser-Leu-Arg-Pro-Ala-Pro-Pro-Pro-Ile-Ser-Gly-Gly-Gly-Tyr-Arg-Cys-(S-succinimido-PEG20K)-amide (GHRPLDKKREEAPSLRPAPPPISGGGYRC(succinimido‑PEG20K)-NH2) [Example 3]” here?
Answer: The value was 0%.

Question: What about the Mortality (dead/total animals) of the same substance?
Answer: The Mortality was 0/10.
